Laboratory results from ChEMBL document CHEMBL2086274, “Synthesis, biological evaluation, and molecular docking of N-{3-[3-(9-methyl-9H-carbazol-3-yl)-acryloyl]-phenyl}-benzamide/amide derivatives as xanthine oxidase and tyrosinase inhibitors” (Bioorg Med Chem, 2012).

Columns and labels:
[1] = Cytotoxicity against mouse B16F10 cells assessed as cell viability at 20 ug/ml after 76 hrs by MTT assay; format: cell-based, B16-F10; settings: read-out: Activity
Tyrosinase [2] = molecular target: T1, Tyrosinase (Agaricus bisporus, UniProt O42713)
T1 sequence (O42713 whole entry): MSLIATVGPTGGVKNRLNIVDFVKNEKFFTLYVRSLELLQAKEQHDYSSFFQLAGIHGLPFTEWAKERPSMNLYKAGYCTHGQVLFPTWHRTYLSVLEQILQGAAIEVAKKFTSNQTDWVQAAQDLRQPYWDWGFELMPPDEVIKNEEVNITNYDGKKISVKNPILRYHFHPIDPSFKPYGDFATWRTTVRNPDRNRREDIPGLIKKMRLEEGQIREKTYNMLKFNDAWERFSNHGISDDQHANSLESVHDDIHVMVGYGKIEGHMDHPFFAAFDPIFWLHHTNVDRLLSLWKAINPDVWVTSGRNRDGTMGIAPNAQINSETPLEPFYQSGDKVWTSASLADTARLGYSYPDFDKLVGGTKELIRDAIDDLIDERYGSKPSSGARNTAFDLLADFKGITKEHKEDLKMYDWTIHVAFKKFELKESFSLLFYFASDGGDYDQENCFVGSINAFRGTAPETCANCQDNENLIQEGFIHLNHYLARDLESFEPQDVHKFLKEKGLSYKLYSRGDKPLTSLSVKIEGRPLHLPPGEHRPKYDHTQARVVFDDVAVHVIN
Description: Inhibition of mushroom tyrosinase using L-DOPA as substrate after 5 mins by UV-spectrophotometric analysis

[3] = molecular target: T2, Tyrosinase (Mus musculus) (UniProt P11344); assay: Inhibition of tyrosinase in mouse B16F10 cells assessed as reduction of melanin production at 20 ug/ml after 72 hrs; format: cell-based; settings: B16-F10
T2 sequence (whole entry): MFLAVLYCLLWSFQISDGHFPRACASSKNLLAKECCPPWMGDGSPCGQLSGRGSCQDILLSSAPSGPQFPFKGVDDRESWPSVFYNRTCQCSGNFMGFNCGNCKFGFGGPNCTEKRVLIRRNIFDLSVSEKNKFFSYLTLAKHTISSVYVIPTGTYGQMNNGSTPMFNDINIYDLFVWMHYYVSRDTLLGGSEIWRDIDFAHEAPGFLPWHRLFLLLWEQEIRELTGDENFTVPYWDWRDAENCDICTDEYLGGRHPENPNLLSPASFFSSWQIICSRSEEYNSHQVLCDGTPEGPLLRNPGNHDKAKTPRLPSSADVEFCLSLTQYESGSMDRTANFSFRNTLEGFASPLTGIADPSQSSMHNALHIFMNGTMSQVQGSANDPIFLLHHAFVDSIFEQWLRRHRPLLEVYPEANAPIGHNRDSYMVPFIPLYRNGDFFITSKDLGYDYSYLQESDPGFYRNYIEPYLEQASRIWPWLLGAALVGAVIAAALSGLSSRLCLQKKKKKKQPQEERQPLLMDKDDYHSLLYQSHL

Tyrosinase [4] = molecular target: T1, Tyrosinase; remark: listed apart in the source
Description: Inhibition of mushroom tyrosinase using L-tyrosine as substrate after 5 mins by UV-spectrophotometric analysis

[5] = molecular target: Xanthine dehydrogenase/oxidase (Bos taurus, UniProt P80457)
Sequence of Xanthine dehydrogenase/oxidase (P80457 whole entry): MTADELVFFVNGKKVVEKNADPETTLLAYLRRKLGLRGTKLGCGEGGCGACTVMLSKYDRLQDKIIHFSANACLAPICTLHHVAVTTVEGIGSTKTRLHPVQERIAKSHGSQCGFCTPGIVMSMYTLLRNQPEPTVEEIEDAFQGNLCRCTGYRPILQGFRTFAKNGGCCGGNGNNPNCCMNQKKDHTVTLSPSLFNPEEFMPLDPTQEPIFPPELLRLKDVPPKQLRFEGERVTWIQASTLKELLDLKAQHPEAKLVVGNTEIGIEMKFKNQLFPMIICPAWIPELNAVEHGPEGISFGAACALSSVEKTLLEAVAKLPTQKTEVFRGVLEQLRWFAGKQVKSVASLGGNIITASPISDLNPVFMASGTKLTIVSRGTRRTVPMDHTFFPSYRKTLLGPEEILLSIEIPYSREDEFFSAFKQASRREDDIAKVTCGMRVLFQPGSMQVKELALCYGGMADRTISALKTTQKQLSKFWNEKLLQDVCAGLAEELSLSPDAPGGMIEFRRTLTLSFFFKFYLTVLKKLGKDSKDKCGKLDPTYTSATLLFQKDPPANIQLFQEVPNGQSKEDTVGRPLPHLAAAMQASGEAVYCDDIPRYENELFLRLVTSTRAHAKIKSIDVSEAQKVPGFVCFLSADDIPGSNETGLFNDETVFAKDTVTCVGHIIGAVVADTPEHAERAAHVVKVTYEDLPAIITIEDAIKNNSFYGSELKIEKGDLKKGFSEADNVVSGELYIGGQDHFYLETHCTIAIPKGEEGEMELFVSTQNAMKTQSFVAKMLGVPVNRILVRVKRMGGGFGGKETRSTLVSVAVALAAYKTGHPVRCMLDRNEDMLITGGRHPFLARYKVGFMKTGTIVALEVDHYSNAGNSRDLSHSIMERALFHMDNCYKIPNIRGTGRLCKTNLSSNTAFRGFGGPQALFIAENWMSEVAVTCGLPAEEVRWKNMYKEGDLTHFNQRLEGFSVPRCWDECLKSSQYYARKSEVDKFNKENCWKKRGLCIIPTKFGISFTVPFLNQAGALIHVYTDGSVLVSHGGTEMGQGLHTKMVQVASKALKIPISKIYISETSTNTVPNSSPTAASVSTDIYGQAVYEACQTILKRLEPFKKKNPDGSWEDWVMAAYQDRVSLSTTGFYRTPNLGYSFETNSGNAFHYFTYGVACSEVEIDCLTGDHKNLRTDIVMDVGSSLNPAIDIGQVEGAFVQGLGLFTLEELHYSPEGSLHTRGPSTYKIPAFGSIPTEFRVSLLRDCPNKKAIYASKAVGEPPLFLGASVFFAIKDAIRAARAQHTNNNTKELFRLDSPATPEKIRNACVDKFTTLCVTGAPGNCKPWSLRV
Description: Inhibition of bovine milk XO assessed as decrease in uric acid formation after 5 mins by UV-spectrophotometric analysis

Tyrosinase [6] = molecular target: T1, Tyrosinase; assay: Competitive inhibition of mushroom tyrosinase using L-DOPA as substrate after 5 mins by Lineweaver-Burk plot analysis

Compound | viability at 76 h, 20 ug/ml [1] | IC50 (Tyrosinase [2]) | inhibition [3] | IC50 (Tyrosinase [4]) | IC50 [5] | Ki (Tyrosinase [6])
Cn1c2ccccc2c2cc(/C=C/C(=O)c3cccc(N)c3)ccc21 | 76.4% | 50.5 µM | 20.1% | 48.2 µM | 48.5 µM | –
Cc1ccc(C(=O)Nc2cccc(C(=O)/C=C/c3ccc4c(c3)c3ccccc3n4C)c2)cc1 | 82.7% | 15.2 µM | 25.4% | 15.1 µM | 5.3 µM | –
Cn1c2ccccc2c2cc(/C=C/C(=O)c3cccc(NC(=O)c4cccc(Br)c4)c3)ccc21 | 78.9% | > 100 µM | 10.2% | > 100 µM | 88.2 µM | –
Cn1c2ccccc2c2cc(/C=C/C(=O)c3cccc(NC(=O)c4ccccc4)c3)ccc21 | 86.7% | 15.1 µM | 42.5% | 14 µM | 42.7 µM | 11.8 µM
Cn1c2ccccc2c2cc(/C=C/C(=O)c3cccc(NC(=O)c4ccc(Cl)cc4)c3)ccc21 | 81.1% | 15.1 µM | 36.1% | 17.5 µM | 5.6 µM | –
CC(=O)Nc1cccc(C(=O)/C=C/c2ccc3c(c2)c2ccccc2n3C)c1 | 80.6% | 77.5 µM | 15.6% | 80.2 µM | > 100 µM | –
Cn1c2ccccc2c2cc(/C=C/C(=O)c3cccc(NC(=O)c4ccc(C(C)(C)C)cc4)c3)ccc21 | 84% | > 100 µM | 11.6% | > 100 µM | 57.1 µM | –
Cn1c2ccccc2c2cc(/C=C/C(=O)c3cccc(NC(=O)c4cccs4)c3)ccc21 | 82.1% | 71.9 µM | 12.8% | 62.4 µM | > 100 µM | –
Cn1c2ccccc2c2cc(/C=C/C(=O)c3cccc(NC(=O)c4ccccc4F)c3)ccc21 | 84.5% | 15.2 µM | 40.5% | 18.2 µM | 79.5 µM | –
Cn1c2ccccc2c2cc(/C=C/C(=O)c3cccc(NC(=O)c4ccccc4Cl)c3)ccc21 | 72% | > 100 µM | 9.7% | > 100 µM | 30.3 µM | –
Cn1c2ccccc2c2cc(/C=C/C(=O)c3cccc(NC(=O)c4cccc(Cl)c4)c3)ccc21 | 80.5% | 56.5 µM | 29.4% | 48.1 µM | 4.4 µM | –
Cc1cccc(C(=O)Nc2cccc(C(=O)/C=C/c3ccc4c(c3)c3ccccc3n4C)c2)c1 | 83.6% | 29.3 µM | 21.7% | 35.2 µM | 20.7 µM | –
Cn1c2ccccc2c2cc(/C=C/C(=O)c3cccc(NC(=O)c4cccc(C(F)(F)F)c4)c3)ccc21 | 80.1% | 75 µM | 30.1% | 65.2 µM | 5.1 µM | –
Cn1c2ccccc2c2cc(/C=C/C(=O)c3cccc(NC(=O)c4ccc(F)cc4)c3)ccc21 | 88.7% | 16.5 µM | 24% | 15.1 µM | 25.8 µM | –
Cn1c2ccccc2c2cc(/C=C/C(=O)c3cccc(NC(=O)C4CC4)c3)ccc21 | 79.5% | 74.5 µM | 30% | 80.2 µM | 4.3 µM | –
Cn1c2ccccc2c2cc(/C=C/C(=O)c3cccc(NC(=O)c4ccco4)c3)ccc21 | 86.6% | 60.3 µM | 10.7% | 46.5 µM | > 100 µM | –
Cn1c2ccccc2c2cc(/C=C/C(=O)c3cccc(NC(=O)c4cccc(F)c4)c3)ccc21 | 83.9% | 42 µM | 20.6% | 35.2 µM | 4.5 µM | –
Cc1ccccc1C(=O)Nc1cccc(C(=O)/C=C/c2ccc3c(c2)c2ccccc2n3C)c1 | 60.9% | > 100 µM | 8.1% | > 100 µM | > 100 µM | –
Cn1c2ccccc2c2cc(/C=C/C(=O)c3cccc(NC(=O)/C=C/c4ccccc4)c3)ccc21 | 81% | 78.2 µM | 15.9% | 85.2 µM | 5.1 µM | –
